Measurements reported in patent publication US9943485B2, “Bioactive compounds protection method and compositions containing the same” (priority 2003, dated 2018).

Assays:
[1] = Effects of feed formula enriched with encapsulated insulin on lambs' weight gain, disease incidence and death rate; format: in vivo, Assaf specie lambs; conditions: one study
Excerpt: More than 1,000 Assaf specie lambs over a period of 12 months at the age of 2-3 days from birth, were used. The growing period was divided into two periods: 3-28 days from birth, during which the lambs were exclusively fed by a milk replacer; and 29-75 days from birth, during which the lambs were fed by post-weaning mix/mash. Lambs in the study groups received between 600 MicroUnits-3,000 MicroUnits of insulin/ml. of milk replacer, and between 1,600 MicroUnits-5,000 MicroUnits of insulin/gr. of mix/mash.
A liquid blend, of 4 Kilograms of Maltodextrin, 40 Liters of Saline 0.9% and 100,000 IU (International Units) of insulin was blended (e.g., 25 IU insulin per 1 g of Maltodextrin). The liquid blend was then freeze-dried. The product of the process was maltodextrin encapsulated insulin. 97% of the bioactive properties of the insulin were maintained after the freeze-drying process. A premix of 10 Kg. was prepared from standard milk powder and the maltodextrin encapsulated insulin. The premix was then blended with 740 Kg. of standard milk replacer product, to generate 750 Kg. of insulin enriched commercial milk replacer.

[2] = Effects of dietary insulin in milk replacer on weight gain in bovine neonates; format: in vivo, Friesy and Charole' calves; conditions: calves, 600 MicroUnits insulin/cc of liquid milk replacer
Excerpt: 100 Friesy and Charole' calves in ages 12-15 days from birth, were used. Each calf received a milk replacer, of up to 6 liters a day, until the 37th day from birth. From the 37th day, milk replacer quantity was reduced by 0.5 liters every 2 days while simultaneously, pellet quantity increased, until the calf's 57 days old, when it is considered fully weaned. Calves in the experimental group receive 600 MicroUnits/cc. of liquid milk replacer. Calves in the control group receive no insulin at all. Daily growth in grams per each 1 Kg. of birth weight was measured and calculated for each calf.

For insulin, the “lambs survived at marketing” value ([1]; insulin fed group started with 70 newly born lambs, 150 days after birth) was 68 lambs, the death rate ([1]; insulin fed group, 70 lambs, at marketing (150 days after birth)) was 2.8% and the “death rate lower compared with the control group” value ([1]; insulin-fed group 2.8% vs control 11.6% death rate) was 74.8%. The “average daily weight growth in grams per each Kg. of birth weight” value ([2]; at the end of the study period) was 22.47 g/Kg birth weight and the “more weight gained compared with the control group” value ([2]; between day 17 and day 67 after birth) was “up to 26%”.
